Literature values, collected in patent publication US20170165232A1, “THREE-PHASE CONTROLLED-RELEASE TABLET COMPRISING MELATONIN AND PROCESS OF PREPARATION” (Ambros Pharma S.R.L., priority 2010, published 2017).

Settings: in humans

COc1ccc2[nH]cc(CCNC(C)=O)c2c1 [melatonin, N-acetyl-5-methoxytryptamine]
half-life: about 40 minutes
